These results are taken from PubChem BioAssay (NCI).

Test systems include SF-295 CNS; SF-268 CNS; HCT-15 colon; SNB-19 CNS; HOP-92 NSCLC; RPMI-8226 leukemia; OVCAR-3 ovarian; NCI-H522 lung; HT29 colon.
What all share (assay): NCI tumour cell line growth inhibition, 48 h

SMILES strings stand for the structures.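 Five concentrations, 48 hours, 96-well plates. At the TGI there is no net growth.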 Bounds are passed on as bounds.

For `O=c1cc(/C=C/c2ccccc2)c2ccc(O/C(=C\c3ccccc3)c3nc4ccccc4c(=O)o3)cc2o1`, the TGI is above 100 µM with SF-295 CNS; 35.8 µM in the assay on SF-268 CNS; above 100 µM in the assay with HCT-15 colon; above 100 µM with SNB-19 CNS; 86.1 µM in the assay with HOP-92 NSCLC; 60.3 µM in the assay on RPMI-8226 leukemia. The molecule further displayed a TGI in the assay on OVCAR-3 ovarian of 81.1 µM.
For the molecule `OC1OC2COC(c3ccccc3)OC2C(O)C1O` (stereo unspecified), the TGI in the assay on SF-295 CNS, with SF-268 CNS, in the assay on HCT-15 colon, in the assay on SNB-19 CNS, with HOP-92 NSCLC and in the assay on RPMI-8226 leukemia was above 100 µM in each case. The TGI in the assay on OVCAR-3 ovarian, with NCI-H522 lung and with HT29 colon was above 100 µM in each case.
As for `CC12CCC(C)(c3cc(O)c(O)cc31)c1cc(O)c(O)cc12`, the TGI with SF-295 CNS was 46.8 µM; with SF-268 CNS it was 42.9 µM; in the assay on HCT-15 colon, 29.3 µM; with SNB-19 CNS it was 30.2 µM; in the assay with HOP-92 NSCLC, 25.4 µM; in the assay with RPMI-8226 leukemia it was 30 µM. The TGI in the assay on OVCAR-3 ovarian is 32.6 µM; in the assay on NCI-H522 lung it was 6.38 µM; with HT29 colon it was 33.2 µM.
Turning to `CCC1(O)CC(c2ccccc2)N(C)C(c2ccccc2)C1` (stereo unspecified), the TGI with SF-295 CNS, in the assay on SF-268 CNS, in the assay with HCT-15 colon, in the assay on SNB-19 CNS, with HOP-92 NSCLC and with OVCAR-3 ovarian was above 100 µM throughout. Moreover, the TGI in the assay on NCI-H522 lung and in the assay on HT29 colon was above 100 µM each time.
On to `O=c1c2ccc(Br)cc2nc(-c2ccccc2)n1NC1OC(CO)C(O)C(O)C1O` (stereo unspecified), for which the TGI in the assay on SF-295 CNS, in the assay on SF-268 CNS, with HCT-15 colon, in the assay with SNB-19 CNS, with HOP-92 NSCLC and in the assay with RPMI-8226 leukemia was above 100 µM each time. Also, the TGI in the assay on OVCAR-3 ovarian, with NCI-H522 lung and in the assay with HT29 colon was above 100 µM each time.
Consider `CC1(C)OC(=O)C(c2ccsc2)C(=O)O1`, for which the TGI in the assay on SF-295 CNS, with SF-268 CNS, with HCT-15 colon, in the assay with SNB-19 CNS, with HOP-92 NSCLC and in the assay on RPMI-8226 leukemia was above 100 µM in each case. The TGI with OVCAR-3 ovarian, with NCI-H522 lung and in the assay with HT29 colon was above 100 µM each time.
Regarding `O=C(c1ccccc1)C(c1ccccc1)C1(O)C(=O)Nc2ccc(Br)cc21` (stereo unspecified), the TGI in the assay on SF-295 CNS was above 100 µM; with SF-268 CNS, above 100 µM; with HCT-15 colon, above 100 µM; in the assay on SNB-19 CNS it was above 100 µM; with HOP-92 NSCLC, above 100 µM; in the assay with RPMI-8226 leukemia, 98.9 µM. The values for the TGI in the assay with OVCAR-3 ovarian, in the assay on NCI-H522 lung and in the assay with HT29 colon were above 100 µM, 59.6 µM and above 100 µM, respectively.
Regarding `Fc1cccc(C2SCc3nc4ccccc4n32)c1` (stereo unspecified), the TGI in the assay on SF-295 CNS is above 100 µM; in the assay with SF-268 CNS, above 100 µM; in the assay with SNB-19 CNS, above 100 µM; with HOP-92 NSCLC, 55.7 µM; in the assay on RPMI-8226 leukemia it was above 100 µM; with OVCAR-3 ovarian it was above 100 µM. In addition, the TGI is 96.1 µM in the assay with NCI-H522 lung and above 100 µM in the assay with HT29 colon.
`Cc1cc2c(C=O)[nH]nc2c(C#N)c1C`: the TGI in the assay with SF-295 CNS was above 100 µM; in the assay on SF-268 CNS it was above 100 µM; in the assay with HCT-15 colon it was above 100 µM; with SNB-19 CNS it was above 100 µM; in the assay on HOP-92 NSCLC it was 99.4 µM; in the assay on RPMI-8226 leukemia, above 100 µM. The values for the TGI with OVCAR-3 ovarian, in the assay on NCI-H522 lung and in the assay with HT29 colon were above 100 µM, 22.7 µM and above 100 µM, respectively.
Turning to `COc1cc(C2C(C(=O)Nc3ccccc3C)=C(C)NC(C)=C2C(=O)Nc2ccccc2C)ccc1O`, the TGI with SF-295 CNS, with SNB-19 CNS, with HOP-92 NSCLC, in the assay with RPMI-8226 leukemia, with OVCAR-3 ovarian and in the assay on NCI-H522 lung was above 100 µM in each case. Moreover, the TGI in the assay with HT29 colon was above 100 µM.
For `O=C1OC(=O)C2C1C1(c3ccccc3)OC2(c2ccccc2)c2c(Br)c(Br)c(Br)c(Br)c21` (stereo unspecified), the TGI in the assay with SF-295 CNS, with SF-268 CNS, in the assay on HCT-15 colon, in the assay on SNB-19 CNS, in the assay with HOP-92 NSCLC and in the assay on RPMI-8226 leukemia was above 100 µM in each case. For the same molecule, the TGI with OVCAR-3 ovarian, in the assay with NCI-H522 lung and with HT29 colon was above 100 µM in each case.
On to `NC1=C(O)/C(=N/NS(=O)(=O)c2ccccc2)C(c2cccc(Cl)c2)O1` (stereo unspecified), for which the TGI in the assay with SF-295 CNS was above 100 µM; in the assay with SF-268 CNS, above 100 µM; with HCT-15 colon, 27 µM; in the assay on SNB-19 CNS, above 100 µM; with HOP-92 NSCLC, 53 µM; in the assay with RPMI-8226 leukemia, above 47.4 µM. For the same molecule, the TGI with OVCAR-3 ovarian amounted to 55.5 µM; with NCI-H522 lung, 26.4 µM; in the assay on HT29 colon it was 55 µM.
As to `CCN(CC)[C@@H]1c2cc3c(cc2C(c2cc(OC)c(O)c(OC)c2)C2C(=O)CO[C@@H]21)OCO3` (stereo partly specified), the TGI with SF-295 CNS, in the assay on SF-268 CNS, with HCT-15 colon, in the assay with HOP-92 NSCLC, in the assay with RPMI-8226 leukemia and in the assay with NCI-H522 lung was above 100 µM throughout. Besides, the TGI with HT29 colon was above 100 µM.
With `CCOC(=O)/C(C#N)=C/c1[nH]c(C)c(C)c1C`, the TGI with SF-295 CNS, with SF-268 CNS, with HCT-15 colon, with SNB-19 CNS, with HOP-92 NSCLC and with RPMI-8226 leukemia was above 100 µM each time. Further, the TGI in the assay on OVCAR-3 ovarian, in the assay with NCI-H522 lung and in the assay on HT29 colon was above 100 µM each time.
As to `COc1ccc(/C=C\c2cc(OC)c(OC(C)=O)c(OC)c2)cc1`, the TGI in the assay on SF-268 CNS was above 100 µM; with HCT-15 colon, 97 µM; in the assay on SNB-19 CNS, above 100 µM; in the assay with HOP-92 NSCLC it was 68.3 µM; in the assay on RPMI-8226 leukemia, 85.7 µM; in the assay with OVCAR-3 ovarian it was above 100 µM. In addition, the TGI in the assay with NCI-H522 lung worked out at 39.7 µM; in the assay on HT29 colon, 47.9 µM.
